Common to all, as to assay type: cell-based
Test [1] has as its system Wnt activity (Sp5-Luc reporter, SW480 colon carcinoma cells). The experiment in a line: Wnt activity screening assay, Sp5-Luc reporter gene in SW480 cells. The note with it: Homo sapiens, overnight incubation. The text has this: The screening assay for Wnt activity is described as follows. Reporter cell lines can be generated by stably transducing cancer cell lines (e.g., colon cancer) or primary cells (e.g., IEC-6 intestinal cells) with a lentiviral construct that includes a Wnt-responsive promoter driving expression of the firefly luciferase gene.
SW480 colon carcinoma cells were transduced with a lentiviral vector expressing luciferase with a human Sp5 promoter consisting of a sequence of eight TCF/LEF binding sites. SW480 cells stably expressing the Sp5-Luc reporter gene and a hygromycin resistance gene were selected by treatment with 150 μg/mL of hygromycin for 7 days. These stably transduced SW480 cells were expanded in cell culture and used for all further screening activities. Each compound was dissolved in DMSO as a 10 mM stock and used to prepare compound source plates. Serial dilution (1:3, 10-point dose-response curves starting from 10 μM) and compound transfer was performed using the ECHO 550 (Labcyte, Sunnyvale, Calif.) into 384-well white solid bottom assay plates (Greiner Bio-One) with appropriate DMSO backfill for a final DMSO concentration of 0.1%. For Sp5-Luc reporter gene assays, the cells were plated at 4,000 cells/well in 384-well plates with medium containing 1% fetal bovine serum and incubated overnight at 37° C. and 5% CO2. Following incubation, 20 μl of BrightGlo luminescence reagent (Promega) was added to each well of the 384-well assay plates. The plates were placed on an orbital shaker for 2 min and then luminescence was quantified using the Envision (Perkin Elmer) plate reader. Readings were normalized to DMSO only treated cells, and normalized activities were utilized for EC50 calculations using the dose-response log (inhibitor) vs. response-variable slope (four parameters) nonlinear regression feature available in GraphPad Prism 5.0 (or Dotmatics). For EC50 of >10 μM, the percent inhibition at 10 μM is provided.
(Reporter assays use an easily measured gene product as a stand-in for the process of interest.)

For a further test, the system named is SW480 colon cancer cells. Put plainly: Cell viability assay (CellTiter-Blue). The note with it: Homo sapiens, 96 h, four days. As to the method:
Representative compounds were screened using the following assay procedure to assess the effect on cell viability as described below.
Each compound was dissolved in DMSO as a 10 mM stock and used to prepare compound source plates. Serial dilution (1:3, 8-point dose-response curves from 10 μM to 0.0045 μM) and compound transfer was performed using the ECHO 550 (Labcyte, Sunnyvale, Calif.) into 96-well clear bottom, black-walled plates (Corning-Costar).
Approximately 2×10^3 SW480 colon cancer cells were seeded into each well and allowed to incubate in the presence or absence of compound for four days at 37° C./5% CO2. Eight replicates of DMSO-treated cells served as controls and cells treated with compound were performed in duplicate.
After incubation, 20 μL of CellTiter-Blue (Promega) was added to each well allowed to incubate for approximately 3 hours. This reagent was a buffered solution which contains resazurin, metabolically active cells were able to reduce rezarurin (blue) into resorufin (pink) which was highly fluorescent. This measured fluorescence was used as a readout for cell viability.
After incubation, the plates were read at Ex 560 nm Em 590 nm (Cytation 3, BioTek). Dose-response curves were generated and EC50 concentration values were calculated using non-linear regression curve fit in the GraphPad Prism (San Diego, Calif.) or Dotmatics' Studies Software (Bishops Stortford, UK). For EC50 of >10 μM, the percent inhibition at 10 μM is provided.
A general note: Alamar Blue is a resazurin reagent that responds to reducing activity.

The test system of test [2] is primary human fibroblasts derived from IPF patients (LL29 cells) treated with TGF-β1. The experiment in a line: Inhibition of fibrotic process, αSMA staining in TGF-β1 treated LL29 fibroblasts. The note with it: Fibroblast, 96 h, % αSMA positive LL29 cells, TGF-β1 20 ng/mL, 4 days. The text has this: Representative compounds were screened using primary human fibroblasts (derived from IPF patients) treated with TGF-β1 to determine their ability to inhibit the fibrotic process.
Primary human fibroblasts derived from IPF patients (LL29 cells) [^1Xiaoqiu Liu, et. al., “Fibrotic Lung Fibroblasts Show Blunted Inhibition by cAMP Due to Deficient cAMP Response Element-Binding Protein Phosphorylation”, Journal of Pharmacology and Experimental Therapeutics (2005), 315(2), 678-687; ^2Watts, K. L., et. al., “RhoA signaling modulates cyclin D1 expression in human lung fibroblasts; implications for idiopathic pulmonary fibrosis”, Respiratory Research (2006), 7(1), 88] were obtained from American Type Culture Collection (ATCC) and expanded in F12 medium supplemented with 15% Fetal Bovine Serum and Penicillin/Streptomycin.
Each compound was dissolved in DMSO as a 10 mM stock and used to prepare compound source plates. Serial dilution (1:2, 11-point dose-response curves from 10 μM to 1.87 nM) and compound transfer was performed using the ECHO 550 (Labcyte, Sunnyvale, Calif.) into 384-well clear bottom assay plates (Greiner Bio-One) with appropriate DMSO backfill for a final DMSO concentration of 0.1%. LL29 cells are plated at 1,500 cells/well in 80 μL/well F12 medium supplemented with 1% Fetal Bovine Serum. One hour after addition of the cells, TGF-β1 (Peprotech; 20 ng/mL) was added to the plates to induce fibrosis (ref. 1 and 2 above). Wells treated with TGF-β1 and containing DMSO were used as controls. Cells were incubated at 37° C. and 5% CO2 for 4 days. Following incubation for 4 days, SYTOX green nucleic acid stain (Life Technologies [Thermo Fisher Scientific]) was added to the wells at a final concentration of 1 μM and incubated at room temperature for 30 min. Cells were then fixed using 4% formaldehyde (Electron Microscopy Sciences), washed 3 times with PBS followed by blocking and permeabilization using 3% Bovine Serum Albumin (BSA; Sigma) and 0.3% Triton X-100 (Sigma) in PBS. Cells were then stained with antibody specific to α-smooth muscle actin (αSMA; Abcam) (ref. 1 and 2 above) in 3% Bovine Serum Albumin (BSA; Sigma) and 0.3% Triton X-100 (Sigma) in PBS, and incubated overnight at 4° C. Cells were then washed 3 times with PBS, followed by incubation with Alexa Flor-647 conjugated secondary antibody (Life Technologies [Thermo Fisher Scientific]) and DAPI at room temperature for 1 hour. Cells were then washed 3 times with PBS and plates were sealed for imaging. αSMA staining was imaged by excitation at 630 nm and emission at 665 nm and quantified using the Compartmental Analysis program on the CellInsight CX5 (Thermo Scientific). Dead or apoptotic cells were excluded from analysis based on positive SYTOX green staining. % of total cells positive for αSMA were counted in each well and normalized to the average of 11 wells treated with TGF-β1 on the same plate using Dotmatics' Studies Software. The normalized averages (fold change over untreated) of 3 replicate wells for each compound concentration were used to create dose-responses curves and EC50 values were calculated using non-linear regression curve fit in the Dotmatics' Studies Software. For EC50 of >10 μM, the percent inhibition at 10 μM is provided.

A further test concerns IL-6 (THP-1 cells). Put plainly: IL-6 inhibition in LPS-stimulated THP-1 cells (HTRF). The note with it: Homo sapiens; IL-6 in THP-1 cells, LPS 500 ng/mL, 22 hours. As to the method: Human monocyte cell line (THP-1 cells; Catalog # TIB-202, ATCC, Manassas, Va.) were cultured in Roswell Park Memorial Institute (RPMI) 1640 Medium (Catalog #21870-100, Buffalo, N.Y.) with 1% L-glutamine, 1% HEPES, 1% Sodium Pyruvate, 2% Sodium Bicarbonate supplemented with 100 units/mL penicillin, 50 μg/mL streptomycin, 2-mercaptoethanol (0.05 mM) [basal medium] and 10% fetal bovine serum (Catalog #16140089, Life Technologies, Carlsbad, Calif.) at 37° C. and 5% CO2.
THP-1 cells were cultured in basal media with 1% FBS for 24 hours before the start of the assay. Each compound was dissolved in DMSO as a 10 mM stock and used to prepare compound source plates. Serial dilution (1:3, 10-point dose-response curves starting from 10 μM) and compound transfer was performed using the ECHO 550 (Labcyte, Sunnyvale, Calif.) into 384-well white low volume assay plates (Greiner Bio-One) with appropriate DMSO backfill for a final DMSO concentration of 0.1%. THP-1 cells were plated at 5000 cells/well in the 384-well plates and incubated at 37° C. for 2 h. 500 ng/mL of LPS was added after 2 hours and cells were incubated for another 22 hours at 37° C. Plates were spun in a centrifuge for 1 minute at […] and a mixture of anti-IL6 XL665, and anti-IL6 Cryptate diluted in reconstitution buffer (Cisbio Inc.) was added to each well. Following incubation for 3 hrs at room temperature, Homogeneous Time-Resolved Fluorescence (HTRF) was measured using the Envision (Perkin Elmer) at 665 nm and […]. The ratio of fluorescence at 665 nm to 620 nm was used as a readout for IL6 quantification. All samples were processed in duplicate. Readings were normalized to DMSO treated cells and normalized activities were utilized for EC50 calculations using the dose-response log (inhibitor) vs. response-variable slope (four parameters) nonlinear regression feature available in GraphPad Prism 5.0 (or Dotmatics). For EC50 of >10 μM, the percent inhibition at 10 μM is provided.

Experimental findings from patent US10285982B2, “3-(1H-pyrrolo[2,3-B]pyridin-2-yl)-1H-pyrazolo[3,4-C]pyridines and therapeutic uses thereof” (Samumed, LLC, priority 2015, dated 2019) are described below.

As usually defined, the EC50 is the concentration needed to bring the measured effect to its halfway point. Higher therefore signals weaker potency.

`Cc1ncc(-c2cc3c(-c4cc5c(-c6cccs6)ccnc5[nH]4)n[nH]c3cn2)n1C` [Compound 701, 5-(1,2-Dimethyl-1H-imidazol-5-yl)-3-(4-(thiophen-2-yl)-1H-pyrrolo[2,3-b]pyridin-2-yl)-1H-pyrazolo[3,4-c]pyridine]: the concentration for a half-maximal effect (EC50) is 1060 nM in test [1], 1220 nM in the test with SW480 colon cancer cells, 928 nM in test [2] and 988 nM in the test with IL-6 (THP-1 cells).
Turning to `CC(C)(C)CC(=O)Nc1cncc(-c2cc3c(-c4cc5c(-c6ccc(F)cc6)ccnc5[nH]4)n[nH]c3cn2)c1` [Compound 44, N-(5-(3-(4-(4-Fluorophenyl)-1H-pyrrolo[2,3-b]pyridin-2-yl)-1H-pyrazolo [3,4-c]pyridin-5-yl)pyridin-3-yl)-3,3-dimethylbutanamide], the EC50 was determined as 144 nM in test [1], 1160 nM in the test on SW480 colon cancer cells, 311 nM in test [2] and 4400 nM in the test on IL-6 (THP-1 cells).
`CC(C)Nc1cncc(-c2cc3c(-c4cc5c(-c6ccc(F)cc6)ccnc5[nH]4)n[nH]c3cn2)c1` [Compound 40, 5-(3-(4-(4-Fluorophenyl)-1H-pyrrolo[2,3-b]pyridin-2-yl)-1H-pyrazolo[3,4-c]pyridin-5-yl)-N-isopropylpyridin-3-amine]: the EC50 stood at 223 nM in test [1], 179 nM in the test on SW480 colon cancer cells, 43 nM in test [2] and 9380 nM with IL-6 (THP-1 cells).
The matching figures for `CC(C)Nc1cncc(-c2cc3c(-c4cc5c(N6CCCCC6)ccnc5[nH]4)n[nH]c3cn2)c1` [Compound 180, N-Isopropyl-5-(3-(4-(piperidin-1-yl)-1H-pyrrolo[2,3-b]pyridin-2-yl)-1H-pyrazolo[3,4-c]pyridin-5-yl)pyridin-3-amine]: 1630 nM, 1540 nM, 2430 nM and 9550 nM.
